Earlier results in patent publication US9078910B2, “Compositions comprising spicamycin derivatives and methods of use thereof” (DARA BioSciences, Inc., priority 2012, dated 2015).

Tested on: neuropathic pain
Conditions: Abdi et al. 2000, Kobierski et al. 2003

In the case of `CCCCCCCCC/C=C/C=C/C(=O)NCC(=O)N[C@@H]1[C@@H](O)[C@@H](O)[C@@H](Nc2ncnc3[nH]cnc23)O[C@H]1[C@@H](O)CO` [KRN5500, 6-[4-deoxy-4-[(2E,4E)-tetradecadienoylglycyl]amino-L-glycero-β-L-mannoheptopyranosyl]amino-9H-purine], the “Efficacy in rat models of neuropathic pain” value is listed as “effective”.
